Data published in patent publication US6737383B1, “Herbicidal oxadiazolidines” (priority 1999, dated 2004).

Legend:
wheat = test: Test B pre/postemergence wheat; assay type: in vivo, Triticum aestivum
In short: (§1)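 Test chemicals in a non-phytotoxic solvent mixture with surfactant were sprayed preemergence onto planted seeds and postemergence onto plants 2 to 18 cm tall (1- to 4-leaf stage). After twelve to sixteen days in a greenhouse, injury was visually rated against untreated controls from 0 (no effect) to 10 (complete control).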

giant foxtail = test: Test B pre/postemergence giant foxtail; assay type: in vivo, Setaria faberii
In short: as §1

surinam grass = test: Test B pre/postemergence surinam grass; assay type: in vivo, Brachiaria decumbens
In short: as §1

rice = test: Test B flood test rice; assay type: in vivo, Oryza sativa
In short: (§2)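 Plants were grown to the 2-leaf stage before treatment with test chemical, then held in a greenhouse for twelve to sixteen days. Injury was visually rated against untreated controls on a 0–10 scale, where 0 is no effect and 10 is complete control.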

duck salad = test: Test B flood test duck salad; assay type: in vivo, Heteranthera limosa
In short: as §2

wild oat = test: Test B pre/postemergence wild oat; assay type: in vivo, Avena fatua
In short: as §1

morningglory = test: Test B pre/postemergence morningglory; assay type: in vivo, Ipomoea hederacea
In short: as §1

soybean = test: Test B pre/postemergence soybean; assay type: in vivo, Glycine max
In short: as §1

velvetleaf = test: Test B pre/postemergence velvetleaf; assay type: in vivo, Abutilon theophrasti
In short: as §1

pigweed = test: Test B pre/postemergence pigweed; assay type: in vivo, Amaranthus retroflexus
In short: as §1

corn = test: Test B pre/postemergence corn; assay type: in vivo, Zea mays
In short: as §1

cocklebur = test: Test B pre/postemergence cocklebur; assay type: in vivo, Xanthium strumarium
In short: as §1

bamyardgrass = test: Test B flood test barnyardgrass; assay type: in vivo, Echinochloa crus-galli
In short: as §2

blackgrass = test: Test B pre/postemergence blackgrass; assay type: in vivo, Alopecurus myosuroides
In short: as §1

sugar beet = test: Test B pre/postemergence sugar beet; assay type: in vivo, Beta vulgaris
In short: as §1

crabgrass = test: Test B pre/postemergence crabgrass; assay type: in vivo, Digitaria sanguinalis
In short: as §1

[1] = Postemergence, Rate 250 g/ha, scale 0 to 10
[2] = Postemergence, Rate 500 g/ha, scale of 0 to 10 where 0 is no effect and 10 is complete control
[3] = Preemergence, Rate 62 g/ha, scale of 0 to 10 where 0 is no effect and 10 is complete control
[4] = Preemergence, Rate 125 g/ha, scale of 0 to 10 where 0 is no effect and 10 is complete control
[5] = Preemergence, Rate 250 g/ha, scale 0 to 10, 0 is no effect, 10 is complete control
[6] = Preemergence, Rate 500 g/ha, scale 0 to 10, 0 is no effect, 10 is complete control
[7] = Rate 62 g/ha, Postemergence, scale 0 to 10 (0 no effect, 10 complete control)
[8] = Rate 125 g/ha, Postemergence, scale 0 to 10, 0 is no effect, 10 is complete control
[9] = Rate 62 g/ha, flood test species, Pre-emergence, visual evaluation after twelve to sixteen days
[10] = Rate 125 g/ha, under heading Pre-emergence, flood test species, visual evaluation after twelve to sixteen days
[11] = Rate 250 g/ha, Pre-emergence (flood test species), scale 0 to 10, 0 is no effect, 10 is complete control
[12] = Rate 500 g/ha, Pre-emergence, flood test species, scale 0 to 10 (0 no effect, 10 complete control)

CC(C)N(C(=O)n1oc(=O)n(CNC(=O)c2ccccc2)c1=O)c1ccc(F)cc1 [Compound 445]
Wheat plant response rating (wheat; [1]): 0 | Wheat plant response rating (wheat; [2]): 0 | Plant response rating, Wheat (wheat; [3]): 0 | Plant response rating, Wheat (wheat; [4]): 0 | Wheat plant response rating (wheat; [5]): 0 | Wheat plant response rating (wheat; [6]): 0 | Wheat plant response rating (wheat; [7]): 0 | Wheat plant response rating (wheat; [8]): 0 | Giant foxtail plant response rating (giant foxtail; [1]): 1 | Giant foxtail plant response rating (giant foxtail; [2]): 2 | Plant response rating, Giant foxtail (giant foxtail; [3]): 0 | Plant response rating, Giant foxtail (giant foxtail; [4]): 0 | Giant foxtail plant response rating (giant foxtail; [5]): 5 | Giant foxtail plant response rating (giant foxtail; [6]): 9 | Giant foxtail plant response rating (giant foxtail; [7]): 0 | Giant foxtail plant response rating (giant foxtail; [8]): 0 | B. signalgrass plant response rating (surinam grass; Postemergence, Rate 250 g/ha, scale 0 to 10, 0 no effect, 10 complete control): 0 | B. signalgrass plant response rating (surinam grass; [2]): 0 | Plant response rating, B. signalgrass (surinam grass; [3]): 0 | Plant response rating, B. signalgrass (surinam grass; [4]): 0 | B. signalgrass plant response rating (surinam grass; [5]): 2 | B. signalgrass plant response rating (surinam grass; [6]): 3 | B. signalgrass plant response rating (surinam grass; [7]): 0 | B. signalgrass plant response rating (surinam grass; [8]): 0 | Plant response rating, Rice (0 to 10 scale, 0 is no effect, 10 is complete control) (rice; [9]): 0 | Rice plant response rating (0 to 10 scale, 0 is no effect, 10 is complete control) (rice; [10]): 0 | Rice plant response rating (rice; [11]): 0 | Rice plant response rating (rice; [12]): 0 | Plant response rating, Ducksalad (0 to 10 scale, 0 is no effect, 10 is complete control) (duck salad; [9]): 0 | Ducksalad plant response rating (0 to 10 scale, 0 is no effect, 10 is complete control) (duck salad; [10]): 0 | Ducksalad plant response rating (duck salad; [11]): 0 | Ducksalad plant response rating (duck salad; [12]): 0 | Wild oats plant response rating (wild oat; [1]): 0 | Wild oats plant response rating (wild oat; [2]): 0 | Plant response rating, Wild oats (wild oat; [3]): 0 | Plant response rating, Wild oats (wild oat; [4]): 0 | Wild oats plant response rating (wild oat; [5]): 0 | Wild oats plant response rating (wild oat; [6]): 0 | Wild oats plant response rating (wild oat; [7]): 0 | Wild oats plant response rating (wild oat; [8]): 0 | Morningglory plant response rating (morningglory; [1]): 4 | Morningglory plant response rating (morningglory; [2]): 8 | Plant response rating, Morningglory (morningglory; [3]): 0 | Plant response rating, Morningglory (morningglory; [4]): 0 | Morningglory plant response rating (morningglory; [5]): 0 | Morningglory plant response rating (morningglory; [6]): 0 | Morningglory plant response rating (morningglory; [7]): 3 | Morningglory plant response rating (morningglory; [8]): 4 | Soybean plant response rating (soybean; [1]): 1 | Soybean plant response rating (soybean; [2]): 2 | Plant response rating, Soybean (soybean; [3]): 0 | Plant response rating, Soybean (soybean; [4]): 0 | Soybean plant response rating (soybean; [6]): 0 | Soybean plant response rating (soybean; [7]): 1 | Soybean plant response rating (soybean; [8]): 1 | Velvetleaf plant response rating (velvetleaf; [1]): 3 | Velvetleaf plant response rating (velvetleaf; [2]): 5 | Plant response rating, Velvetleaf (velvetleaf; [3]): 0 | Plant response rating, Velvetleaf (velvetleaf; [4]): 0 | Velvetleaf plant response rating (velvetleaf; [5]): 2 | Velvetleaf plant response rating (velvetleaf; [6]): 3 | Velvetleaf plant response rating (velvetleaf; [7]): 0 | Velvetleaf plant response rating (velvetleaf; [8]): 2 | Redroot pigweed plant response rating (pigweed; [2]): 4 | Plant response rating, Redroot pigweed (pigweed; [3]): 0 | Plant response rating, Redroot pigweed (pigweed; [4]): 2 | Redroot pigweed plant response rating (pigweed; [5]): 4 | Redroot pigweed plant response rating (pigweed; [6]): 10 | Redroot pigweed plant response rating (pigweed; [7]): 0 | Redroot pigweed plant response rating (pigweed; [8]): 0 | Corn plant response rating (corn; [1]): 0 | Corn plant response rating (corn; [2]): 0 | Plant response rating, Corn (corn; [3]): 0 | Plant response rating, Corn (corn; [4]): 0 | Corn plant response rating (corn; [5]): 0 | Corn plant response rating (corn; [6]): 0 | Corn plant response rating (corn; [7]): 0 | Corn plant response rating (corn; [8]): 0 | Cocklebur plant response rating (cocklebur; [1]): 2 | Cocklebur plant response rating (cocklebur; [2]): 2 | Plant response rating, Cocklebur (cocklebur; [3]): 0 | Plant response rating, Cocklebur (cocklebur; [4]): 0 | Cocklebur plant response rating (cocklebur; [5]): 0 | Cocklebur plant response rating (cocklebur; [7]): 0 | Cocklebur plant response rating (cocklebur; [8]): 2 | Plant response rating, Barnyardgrass (0 to 10 scale, 0 is no effect, 10 is complete control) (bamyardgrass; [9]): 0 | Barnyardgrass plant response rating (0 to 10 scale, 0 is no effect, 10 is complete control) (bamyardgrass; [10]): 0 | Barnyardgrass plant response rating (bamyardgrass; [11]): 0 | Barnyardgrass plant response rating (bamyardgrass; [12]): 0 | Blackgrass plant response rating (blackgrass; [1]): 0 | Blackgrass plant response rating (blackgrass; [2]): 0 | Plant response rating, Blackgrass (blackgrass; [3]): 0 | Plant response rating, Blackgrass (blackgrass; [4]): 0 | Blackgrass plant response rating (blackgrass; [5]): 0 | Blackgrass plant response rating (blackgrass; [6]): 1 | Blackgrass plant response rating (blackgrass; [7]): 0 | Blackgrass plant response rating (blackgrass; [8]): 0 | Sugarbeets plant response rating (sugar beet; [1]): 0 | Sugarbeets plant response rating (sugar beet; [2]): 0 | Plant response rating, Sugarbeets (sugar beet; [3]): 0 | Plant response rating, Sugarbeets (sugar beet; [4]): 0 | Sugarbeets plant response rating (sugar beet; [5]): 0 | Sugarbeets plant response rating (sugar beet; [6]): 0 | Sugarbeets plant response rating (sugar beet; [7]): 0 | Sugarbeets plant response rating (sugar beet; [8]): 0 | Crabgrass plant response rating (crabgrass; [1]): 3 | Crabgrass plant response rating (crabgrass; [2]): 7 | Plant response rating, Crabgrass (crabgrass; [3]): 0 | Plant response rating, Crabgrass (crabgrass; [4]): 2 | Crabgrass plant response rating (crabgrass; [5]): 3 | Crabgrass plant response rating (crabgrass; [6]): 9 | Crabgrass plant response rating (crabgrass; [7]): 0 | Crabgrass plant response rating (crabgrass; [8]): 1
